Reference: patent publication US20060217418A1, “Substituted alkyl amido piperidines” (priority 2001, published 2006)

Molecular target: T1, rat MCH1 receptor (Rattus norvegicus, UniProt P97639)
T1 construct: operatively linked to DNA encoding the rat MCH1 receptor so as to permit expression thereof; expressed in transfected cells; host or cells: Human embryonic kidney Peak rapid 293 (Peakr293) cells, transient calcium phosphate transfection, membranes
Assay: Radioligand binding assay at cloned rat MCH1 receptor ([3H]Compound A)
Conditions: cloned rat MCH1, Peakr293 cell membranes, 0.08 nM [3H]Compound A, 25° C., 90 minutes; read-out: Ki(MCH-1)

T1 sequence (P97639 whole entry): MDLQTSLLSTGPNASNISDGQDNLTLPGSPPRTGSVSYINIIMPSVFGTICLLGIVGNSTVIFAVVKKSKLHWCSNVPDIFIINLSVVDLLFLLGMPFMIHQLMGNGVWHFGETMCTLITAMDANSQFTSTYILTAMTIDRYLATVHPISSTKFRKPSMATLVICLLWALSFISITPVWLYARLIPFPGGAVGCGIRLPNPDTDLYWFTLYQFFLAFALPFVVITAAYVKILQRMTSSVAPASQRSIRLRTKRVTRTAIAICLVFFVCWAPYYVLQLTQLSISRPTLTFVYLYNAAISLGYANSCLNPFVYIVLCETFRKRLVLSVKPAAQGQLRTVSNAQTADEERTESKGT

| Ki | SMILES |
| --- | --- |
| 6.2 nM | CC(C)OC(=O)Nc1cccc(C2CCN(CCCNC(=O)C(c3ccc(F)cc3)c3ccc(F)cc3)CC2)c1 [Example 146, ISOPROPYL 3-[1-(3-{[BIS(4-FLUOROPHENYL)ACETYL]AMINO}PROPYL)-4-PIPERIDINYL]PHENYLCARBAMATE] |
| 39.9 nM | Cc1ccc(NC(=O)C(C)C)cc1C1CCN(CCCNC(=O)C(F)(F)c2ccccc2)CC1 [Example 124] |
| 24.4 nM | Cc1ccc(NC(=O)C(C)C)cc1C1CCN(CCCNC(=O)[C@@H](C)c2ccccc2)CC1 [Example 161, 2-methyl-N-{4-methyl-3-[1-(3-{[(2S)-2-phenylpropanoyl]amino}propyl)-4-piperidinyl]phenyl} propanamide] |
| 10.2 nM | O=C(Nc1cccc(C2CCN(CCCNC(=O)C3(c4ccc(F)cc4)CCCC3)CC2)c1)C1CC1 [Example 121, N-[3-(4-{3-[(CYCLOPROPYLCARBONYL)AMINO]PHENYL}-1-PIPERIDINYL) PROPYL]-1-(4-FLUOROPHENYL)CYCLOPENTANECARBOXAMIDE] |
| 1.1 nM | CCCC(=O)Nc1cccc(C2CCN(CCCNC(=O)C(c3ccc(Cl)cc3)c3ccc(Cl)cc3)CC2)c1 [Example 53, N-{3-[1-(3-{[2,2-BIS(4-CHLOROPHENYL)ACETYL]AMINO}PROPYL)-4-PIPERIDINYL] PHENYL}BUTANAMIDE] |
| 180 nM | O=C(Nc1cccc(C2CCN(CCCNC(=O)C(c3ccccc3)c3ccccc3)CC2)c1)OCc1ccccc1 [Example 140, Benzyl 3-(1-{3-[(Diphenylacetyl)Amino]Propyl}-4-Piperidinyl)Phenylcarbamate] |
| 52.3 nM | CC(=O)Nc1cccc(C2CCN(CCCNC(=O)C3(c4ccc(F)cc4)CCCC3)CC2)c1 [Example 72, N-(3-{4-[3-(ACETYLAMINO)PHENYL]-1-PIPERIDINYL}PROPYL)-1-(4-FLUOROPHENYL) CYCLOPENTANECARBOXAMIDE] |
| 1.9 nM | CC(C)C(=O)Nc1cccc(C2CCN(CCCNC(=O)C(c3ccc(Cl)cc3)c3ccc(Cl)cc3)CC2)n1 [Example 50] |
| 101 nM | CCCC(=O)Nc1cc(C2CCN(CCCNC(=O)C3(c4ccc(F)cc4)CCCC3)CC2)ccc1F [Example 107] |
| 7.9 nM | CCC(=O)Nc1cccc(C2CCN(CCCNC(=O)C(C)(C)c3ccc(Cl)cc3)CC2)c1 [Example 7] |
| 18.7 nM | Cc1ccc(NC(=O)C(C)C)cc1C1CCN(CCCNC(=O)[C@H](C)c2ccc(Cl)cc2)CC1 [Example 167] |
| 7.9 nM | CC(C)C(=O)Nc1cccc(C2CCN(CCCNC(=O)C3(c4ccc(F)cc4)CCCCC3)CC2)c1 [Example 40, 1-(4-FLUOROPHENYL)-N-(3-{4-[3-(ISOBUTYRYLAMINO)PHENYL]-1-PIPERIDINYL} PROPYL)CYCLOHEXANECARBOXAMIDE] |
| 10.2 nM | CC(C)C(=O)Nc1cccc(C2CCN(CCCNC(=O)C3(c4ccc(F)cc4Cl)CCCCC3)CC2)c1 [Example 138] |
| 0.9 nM | CCCC(=O)Nc1cc(C2CCN(CCCNC(=O)C(c3ccc(F)cc3)c3ccc(F)cc3)CC2)ccc1F [Example 104] |
| 8.2 nM | CC(C)C(=O)Nc1cccc(C2CCN(CCCNC(=O)C3(c4ccc(Cl)cc4)CCCC3)CC2)c1 [Example 31, 1-(4-CHLOROPHENYL)-N-(3-{4-[3-(ISOBUTYRYLAMINO)PHENYL]-1-PIPERIDINYL} PROPYL)CYCLOPENTANECARBOXAMIDE] |
| 4.7 nM | CC(=O)Nc1cccc(C2CCN(CCCNC(=O)C3(c4ccc(Cl)cc4)CCCCC3)CC2)c1 [Example 75, N-(3-{4-[3-(ACETYLAMINO)PHENYL]-1-PIPERIDINYL}PROPYL)-1-(4-CHLOROPHENYL) CYCLOHEXANECARBOXAMIDE] |

| Ki | SMILES |
| --- | --- |
| 39.9 nM | CC(C)C(=O)Nc1cccc(C2CCN(CCCNC(=O)C3(c4ccc(Cl)cc4Cl)CC3)CC2)c1 [Example 41, 1-(2,4-DICHLOROPHENYL-N-(3-{4-[3-(ISOBUTYRYLAMINO)PHENYL]-1-PIPERIDINYL} PROPYL)CYCLOPROPANECARBOXAMIDE] |
| 7.9 nM | CCCC(=O)Nc1cccc(C2CCN(CCCNC(=O)C3(c4ccc(Cl)cc4)CCCC3)CC2)c1 [Example 102, N-(3-{4-[3-(BUTYRYLAMINO)PHENYL]-1-PIPERIDINYL}PROPYL)-1-(4-CHLOROPHENYL) CYCLOPENTANECARBOXAMIDE] |
| 77.4 nM | CC(C)OC(=O)Nc1cccc(C2CCN(CCCNC(=O)C(C)(C)c3ccc(Cl)cc3)CC2)c1 [Example 142, Isopropyl 3-[1-(3-{[2-(4-Chlorophenyl)-2-Methylpropanoyl]Amino}Propyl)-4-Piperidinyl]Phenyl carbamate] |
| 2.9 nM | Cc1ccc(NC(=O)C(C)C)cc1C1CCN(CCCNC(=O)C(C)(C)c2ccc(Cl)cc2)CC1 [Example 91] |
| 2.8 nM | CC(C(=O)NCCCN1CCC(c2cccc(NC(=O)C3CC3)c2)CC1)(c1ccccc1)c1ccccc1 [Example 123, N-[3-(1-{3-[(2,2-DIPHENYLPROPANOYL)AMINO]PROPYL}-4-PIPERIDINYL)PHENYL] CYCLOPROPANECARBOXAMIDE] |
| 70.7 nM | CCC(=O)Nc1cccc(C2CCN(CCCNC(=O)C(C)c3ccc(F)cc3)CC2)c1 (stereo not shown) [Example 64, 2-(4-FLUOROPHENYL)-N-(3-{4-[3-PROPIONYLAMINO)PHENYL]-1-PIPERIDINYL} PROPYL) PROPANAMIDE] |
| 5.7 nM | Cc1ccc(NC(=O)C(C)C)cc1C1CCN(CCCNC(=O)[C@@H](C)c2ccc(Cl)cc2)CC1 [Example 166, (2S)-2-(4-chlorophenyl)-N-(3-{4-[5-(isobutyrylamino)-2-methylphenyl]-1-piperidinyl}propyl) propanamide] |
| 18.6 nM | O=C(Nc1cccc(C2CCN(CCCNC(=O)C3(c4ccc(F)cc4Cl)CCCC3)CC2)c1)C1CC1 [Example 119, 1-(2-CHLORO-4-FLUOROPHENYL)-N-[3-(4-{3-[(CYCLOPROPYLCARBONYL)AMINO] PHENYL}-1-PIPERIDINYL)PROPYL]CYCLOPENTANECARBOXAMIDE] |
| 0.4 nM | CC(=O)Nc1cccc(C2CCN(CCCNC(=O)C(c3ccc(F)cc3)c3ccc(F)cc3)CC2)c1 [Example 28, N-(3-{4-[3-(acetylamino)phenyl]-1-piperidinyl}propyl)-2,2-bis(4-fluorophenyl)acetamide] |
| 4.3 nM | CCCC(=O)Nc1cccc(C2CCN(CCCNC(=O)C(C)(c3ccccc3)c3ccccc3)CC2)c1 [Example 98, N-[3-(1-{3-[(2,2-DIPHENYLPROPANOYL)AMINO]PROPYL}-4-PIPERIDINYL)PHENYL] BUTANAMIDE] |
| 23.5 nM | CC(=O)Nc1cccc(C2CCN(CCCNC(=O)C(C)c3ccc(Cl)cc3)CC2)c1 (stereo not shown) [Example 95, N-(3-{4-[3-(ACETYLAMINO)PHENYL]-1-PIPERIDINYL}PROPYL)-2-(4-CHLOROPHENYL) PROPANAMIDE] |
| 6.7 nM | CC(=O)Nc1cccc(C2CCN(CCCNC(=O)C3(c4ccc(Cl)cc4)CCCC3)CC2)c1 [Example 78, N-(3-{4-[3-(ACETYLAMINO)PHENYL]-1-PIPERIDINYL}PROPYL)-1-(4-CHLOROPHENYL) CYCLOPENTANECARBOXAMIDE] |
| 5.9 nM | CC(C)C(=O)Nc1ccc(F)c(C2CCN(CCCNC(=O)C3(c4ccc(F)cc4Cl)CCCCC3)CC2)c1 [Example 133, 1-(2-CHLORO-4-FLUOROPHENYL)-N-(3-{4-[2-FLUORO-5-(ISOBUTYRYLAMINO) PHENYL]-1-PIPERIDINYL}PROPYL)CYCLO HEXANECARBOXAMIDE] |
| 175 nM | CC(C)C(=O)Nc1ccc(F)c(C2CCN(CCCNC(=O)C(C)(C)c3ccc(Cl)cc3)CC2)c1 [Example 127] |
| 8.9 nM | CCC(=O)Nc1cccc(C2CCN(CCCNC(=O)C(CC)(c3ccccc3)c3ccccc3)CC2)c1 [Example 15, 2,2-DIPHENYL-N-(3-{4-[3-(PROPIONYLAMINO)PHENYL]-1-PIPERIDINYL}PROPYL) BUTANAMIDE] |
